Measured values from publication PMC11207335, “In Vitro Metabolism and Transport Characteristics of Zastaprazan” (Pharmaceutics, 2024).

Legend:
[1] = target: T1, OCT1 (Homo sapiens, UniProt O15245); assay: Uptake into HEK293 cells expressing OCT1; details: for Uptake Rate / Fold-Change: 6 μM; for Fold-Change: vs HEK293-mock; for Substrate: OCT1
T1 sequence (O15245 1-554): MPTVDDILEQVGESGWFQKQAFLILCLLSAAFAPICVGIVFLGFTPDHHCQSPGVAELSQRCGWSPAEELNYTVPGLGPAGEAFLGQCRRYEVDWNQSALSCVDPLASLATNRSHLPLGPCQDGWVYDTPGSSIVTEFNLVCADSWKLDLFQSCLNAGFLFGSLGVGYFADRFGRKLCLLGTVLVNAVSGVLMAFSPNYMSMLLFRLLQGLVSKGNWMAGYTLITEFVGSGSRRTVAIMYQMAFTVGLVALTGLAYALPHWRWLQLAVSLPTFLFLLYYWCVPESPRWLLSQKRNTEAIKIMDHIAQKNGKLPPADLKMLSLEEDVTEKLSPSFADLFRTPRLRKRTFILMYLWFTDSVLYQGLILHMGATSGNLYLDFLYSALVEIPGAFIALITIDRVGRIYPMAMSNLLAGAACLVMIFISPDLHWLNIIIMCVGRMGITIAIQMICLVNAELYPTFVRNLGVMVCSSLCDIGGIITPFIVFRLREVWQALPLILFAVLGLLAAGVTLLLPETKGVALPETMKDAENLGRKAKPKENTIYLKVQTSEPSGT

[2] = target: MATE2K (Homo sapiens, UniProt Q86VL8); assay: Uptake into HEK293 cells expressing MATE2K; details: for Uptake Rate / Fold-Change: 6 μM, HEK293-MATE2K; for Fold-Change: vs HEK293-mock; for Substrate: MATE2K
[3] = target: T2, BCRP (Homo sapiens, UniProt Q9UNQ0); assay: Permeability in LLC-PK1-BCRP cells; type: in vitro ADME; details: for Substrate: BCRP
T2 construct: host or cells: LLC-PK1 (porcine kidney cells)
T2 sequence (Q9UNQ0 1-655): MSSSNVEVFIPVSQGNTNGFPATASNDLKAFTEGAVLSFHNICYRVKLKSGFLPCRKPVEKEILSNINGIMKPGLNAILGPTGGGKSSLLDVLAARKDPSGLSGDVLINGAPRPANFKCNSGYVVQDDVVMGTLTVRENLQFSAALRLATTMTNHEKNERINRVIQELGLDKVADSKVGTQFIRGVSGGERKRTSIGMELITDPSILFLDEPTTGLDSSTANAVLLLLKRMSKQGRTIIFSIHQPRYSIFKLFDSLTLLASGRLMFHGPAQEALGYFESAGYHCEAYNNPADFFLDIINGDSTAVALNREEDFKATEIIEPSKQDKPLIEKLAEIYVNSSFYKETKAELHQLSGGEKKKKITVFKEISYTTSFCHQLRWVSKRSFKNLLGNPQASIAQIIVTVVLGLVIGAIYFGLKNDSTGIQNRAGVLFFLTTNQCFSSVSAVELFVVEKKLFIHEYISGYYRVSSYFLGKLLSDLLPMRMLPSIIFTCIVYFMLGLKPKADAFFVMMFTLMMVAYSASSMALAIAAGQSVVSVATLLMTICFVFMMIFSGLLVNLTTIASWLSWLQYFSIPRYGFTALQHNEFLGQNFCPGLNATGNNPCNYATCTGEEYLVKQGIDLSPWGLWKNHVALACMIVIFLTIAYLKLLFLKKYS
Procedure: LLC-PK1-P-gp or BCRP cells were seeded on collagen-coated 24-transwell membranes at a density of 2.5 × 10^5 cells/mL and maintained at 37 °C in a humidified atmosphere with 5% CO2/95% air for 5 days in Medium 199 supplemented with 10% […], 50 μg/mL of gentamycin, and 50 μg/mL of hygromycin. The culture medium was replaced every other day. On the day of the experiment, the growth medium was discarded, and the attached cells were washed with prewarmed HBSS (pH 7.4) and preincubated with HBSS for 20 min at 37 °C. […] Aliquots (0.1 mL) in the apical side were transferred to clean tubes every 15 min for 1 h and replaced with an equal volume of fresh HBSS.
LLC-PK1-P-gp or BCRP cells were seeded on collagen-coated 24-transwell membranes at a density of 2.5 × 10^5 cells/mL and cultured for 5 days. The growth medium was discarded on the day of the experiment, and the attached cells were washed with prewarmed HBSS (pH 7.4) and preincubated with HBSS for 20 min at 37 °C. […] Aliquots (0.1 mL) in the apical side were transferred to clean tubes every 15 min for 1 h and replaced with an equal volume of fresh HBSS. Aliquots (30 μL) of each sample were vortex-mixed with 90 μL of IS solution for 1 min, and then centrifugation was performed at 13,500 rpm at 4 °C for 5 min. Aliquots (5 μL) of the supernatant were injected into the LC-MS/MS for analysis.
The permeability (Papp) was calculated from the following equation [23, 24]: Papp(cm/s)=transport ratenmol/s/JP−1366 or M1 concentration (μM)×surface area of membrane (cm^2)

[4] = test system: HEK293-mock cells; assay: Uptake into HEK293-mock cells; details: 6 μM
[5] = test system: rat hepatocytes; assay: Metabolic stability of JP-1366 in rat hepatocytes; type: in vitro ADME; details: rat hepatocytes
Procedure: According to the manufacturer’s protocol, cryopreserved human, dog, monkey, mouse, and rat hepatocytes were purified and recovered. […] The metabolic reaction in each sample well was quenched by adding 120 μL of ice-cold acetonitrile.
Log-transformed relative responses of JP-1366 were plotted against incubation time, thereby obtaining the elimination slope (k) from the linear regression analysis. […] (1) t1 /2(min)=ln2/kelimination slope (2) Clint(mL/min/kg)=ln2/t1/2×mL incubation/hepatocyte (10^6 cells)×B×10^6 cells/g liver×A g liver/kg BW (3) Clhep(mL/min/kg)=Qh×Clint/Qh+Clint (4) HER=Clhep/Qh
Here, A means the liver weight parameters and has values of 25.7, 32, 30, 87.5, and 40; B means the cell number parameters and has values of 139, 215, 120, 135, and 117; Qh represents hepatic blood flow and has values of 20.7, 30.9, 43.6, 90, and 55.2 mL/min/kg for humans, dogs, monkeys, mice, and rats, respectively. Hepatic extraction ratios (HERs) of ≤0.25, 0.25–0.75, and ≥0.75 were regarded as low, moderate, and high, respectively.

[6] = test system: gastric acid secretion; details: lumen-perfused rat model, among JP-1366, vonoprazan, and tegoprazan; cited from earlier work
[7] = pig, pH 7.4, with Ko134 1 μM, LLC-PK1-BCRP, Ko134 1 μM
[8] = pig, pH 7.4, LLC-PK1-BCRP, Control

MATE2K, sequence (Q86VL8 1-566 isoform Q86VL8-3): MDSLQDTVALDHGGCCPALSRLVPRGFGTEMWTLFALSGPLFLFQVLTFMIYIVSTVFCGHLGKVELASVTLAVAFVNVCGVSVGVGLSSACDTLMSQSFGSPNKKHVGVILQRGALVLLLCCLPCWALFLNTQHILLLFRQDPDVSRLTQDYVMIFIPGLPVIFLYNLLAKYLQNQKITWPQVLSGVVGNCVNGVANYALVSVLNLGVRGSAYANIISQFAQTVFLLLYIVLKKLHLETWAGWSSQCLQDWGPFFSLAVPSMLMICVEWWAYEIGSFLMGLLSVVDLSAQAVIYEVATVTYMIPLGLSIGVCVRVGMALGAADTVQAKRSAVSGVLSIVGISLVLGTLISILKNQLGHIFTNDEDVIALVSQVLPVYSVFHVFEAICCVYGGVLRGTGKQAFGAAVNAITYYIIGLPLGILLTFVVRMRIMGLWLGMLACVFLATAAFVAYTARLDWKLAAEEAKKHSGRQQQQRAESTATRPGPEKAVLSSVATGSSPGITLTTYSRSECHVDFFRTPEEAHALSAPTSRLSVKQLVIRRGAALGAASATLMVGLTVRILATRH

| Uptake Rate ([1]; HEK293-OCT1, cimetidine 100 μM) | Uptake Rate ([1]; HEK293-OCT1, control) | Substrate [1] | Uptake Rate ([2]; cimetidine 100 μM) | Uptake Rate ([2]; control) | Substrate [2] | Substrate [3] | Papp A→B at 1 h, 4 µM [3, 7] | Papp B→A at 1 h, 4 µM [3, 7] | Papp A→B at 1 h, 4 µM [3, 8] | Papp B→A at 1 h, 4 µM [3, 8] | Uptake Rate ([4]; cimetidine 100 μM) | Uptake Rate ([4]; control) | Uptake Rate ([4]; probenecid 20 μM) | Uptake Rate ([4]; rifampin 20 μM) | SMILES | other results |
| --- | --- | --- | --- | --- | --- | --- | --- | --- | --- | --- | --- | --- | --- | --- | --- | --- |
| 82.01 ± 3.72 pmol/min/10^5 Cells | 82.43 ± 3.59 pmol/min/10^5 Cells | No | 72.81 ± 3.33 pmol/min/10^5 Cells | 59.19 ± 3.66 pmol/min/10^5 Cells | No | No | 32 ± 2.84 ×10⁻⁶ cm/s | 47.3 ± 1.39 ×10⁻⁶ cm/s | 31.7 ± 3.39 ×10⁻⁶ cm/s | 33.8 ± 3.45 ×10⁻⁶ cm/s | 55.35 ± 2.24 pmol/min/10^5 Cells | 51.53 ± 3.16 pmol/min/10^5 Cells | 54.22 ± 1.90 pmol/min/10^5 Cells | 57.80 ± 0.89 pmol/min/10^5 Cells | Cc1cccc(CO)c1CNc1cc(C(=O)N2CCC2)cn2c(C)c(C)nc12 [M1, azetidin-1-yl(8-((2-(hydroxymethyl)-6-methyl-benzyl)amino)-2,3-dimethylimidazo[1,2-a]pyridin-6-yl)methanone] | Fold-Change ([1]; HEK293-OCT1, cimetidine 100 μM): 1.6; Fold-Change ([1]; HEK293-OCT1, control): 1.6; Fold-Change ([2]; cimetidine 100 μM): 1.4; Fold-Change ([2]; control): 1.1; efflux ratio at 1 h ([3]; pig, pH 7.4, LLC-PK1-BCRP, concentration range of 0.3–85 μM, read-out: ER): 1.1 to 1.7; Fold-Change ([4]; cimetidine 100 μM): 1.1; Fold-Change ([4]; control): 1.0; Fold-Change ([4]; probenecid 20 μM): 1.1; Fold-Change ([4]; rifampin 20 μM): 1.1 |
| 82.01 ± 3.72 pmol/min/10^5 Cells | 82.43 ± 3.59 pmol/min/10^5 Cells | No | 72.81 ± 3.33 pmol/min/10^5 Cells | 59.19 ± 3.66 pmol/min/10^5 Cells | No | No | 13.6 ± 0.54 ×10⁻⁶ cm/s | 22.6 ± 0.47 ×10⁻⁶ cm/s | 14.8 ± 1.23 ×10⁻⁶ cm/s | 20.5 ± 3.95 ×10⁻⁶ cm/s | 55.35 ± 2.24 pmol/min/10^5 Cells | 51.53 ± 3.16 pmol/min/10^5 Cells | 54.22 ± 1.90 pmol/min/10^5 Cells | 57.80 ± 0.89 pmol/min/10^5 Cells | Cc1cccc(C)c1CNc1cc(C(=O)N2CCC2)cn2c(C)c(C)nc12 [JP-1366, 1-azetidinyl(8-(((2,6-dimethylphenyl)methyl)amino)-2,3-dimethylimidazo(1,2-a)pyridin-6-yl)methanone] | CLhep [5]: 39.4 mL/min/kg; HER [5]: 0.71; gastric acid secretion inhibitory effect [6]: fastest-acting and superior gastric acid secretion inhibitory effect |
